According to ChEMBL document CHEMBL5463725, “Data for DCP probe BAY-277” (2023):
pKi: −log10 of the molar value.

How the values were obtained:
[1] = molecular target: eIF-2-alpha kinase GCN2 (Homo sapiens) (UniProt Q9P2K8); assay: Inhibition of GCN2(h) at 10.0 µM in the Eurofins Kinase panel; details: Compound concentration 10.0 uM
[2] = molecular target: Megakaryocyte-associated tyrosine-protein kinase (Homo sapiens) (UniProt P42679); assay: Inhibition of MATK(h) at 10.0 µM in the Eurofins Kinase panel; details: Compound concentration 10.0 uM
Megakaryocyte-associated tyrosine-protein kinase (Homo sapiens), sequence (P42679 whole entry): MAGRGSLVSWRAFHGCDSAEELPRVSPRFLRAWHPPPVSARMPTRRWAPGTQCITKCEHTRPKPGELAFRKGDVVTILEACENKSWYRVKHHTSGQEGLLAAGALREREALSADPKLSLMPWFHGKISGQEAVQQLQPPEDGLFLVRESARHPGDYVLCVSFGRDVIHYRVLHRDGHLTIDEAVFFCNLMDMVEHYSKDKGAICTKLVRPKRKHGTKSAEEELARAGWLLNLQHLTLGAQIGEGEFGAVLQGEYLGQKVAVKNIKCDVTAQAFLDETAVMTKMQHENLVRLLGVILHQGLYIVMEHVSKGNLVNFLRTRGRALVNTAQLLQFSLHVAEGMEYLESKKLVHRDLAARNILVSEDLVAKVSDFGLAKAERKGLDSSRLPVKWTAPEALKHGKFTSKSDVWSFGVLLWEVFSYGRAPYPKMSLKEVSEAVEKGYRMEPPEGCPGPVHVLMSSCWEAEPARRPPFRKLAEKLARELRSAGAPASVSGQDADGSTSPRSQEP

[3] = molecular target: Death-associated protein kinase 3 (Homo sapiens) (UniProt O43293); assay: Inhibition of ZIPK(h) at 10.0 µM in the Eurofins Kinase panel; details: Compound concentration 10.0 uM
Death-associated protein kinase 3 (Homo sapiens), sequence (O43293 whole entry, looked up): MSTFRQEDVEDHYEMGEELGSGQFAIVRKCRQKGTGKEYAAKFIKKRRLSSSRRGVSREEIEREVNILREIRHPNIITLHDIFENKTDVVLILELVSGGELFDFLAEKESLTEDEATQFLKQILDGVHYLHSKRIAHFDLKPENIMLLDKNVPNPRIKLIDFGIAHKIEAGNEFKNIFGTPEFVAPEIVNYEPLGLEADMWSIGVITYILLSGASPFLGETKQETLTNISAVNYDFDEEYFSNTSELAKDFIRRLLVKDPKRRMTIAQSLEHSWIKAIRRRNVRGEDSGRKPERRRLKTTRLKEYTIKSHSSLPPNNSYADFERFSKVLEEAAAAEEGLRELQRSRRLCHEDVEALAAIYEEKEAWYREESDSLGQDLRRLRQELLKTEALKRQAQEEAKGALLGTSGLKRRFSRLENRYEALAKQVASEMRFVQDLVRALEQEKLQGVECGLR

[4] = molecular target: Activin receptor type-1-like (Homo sapiens) (UniProt P37023); assay: Inhibition of ALK1(h) at 10.0 µM in the Eurofins Kinase panel; details: Compound concentration 10.0 uM
Activin receptor type-1-like (Homo sapiens), sequence (P37023 whole entry): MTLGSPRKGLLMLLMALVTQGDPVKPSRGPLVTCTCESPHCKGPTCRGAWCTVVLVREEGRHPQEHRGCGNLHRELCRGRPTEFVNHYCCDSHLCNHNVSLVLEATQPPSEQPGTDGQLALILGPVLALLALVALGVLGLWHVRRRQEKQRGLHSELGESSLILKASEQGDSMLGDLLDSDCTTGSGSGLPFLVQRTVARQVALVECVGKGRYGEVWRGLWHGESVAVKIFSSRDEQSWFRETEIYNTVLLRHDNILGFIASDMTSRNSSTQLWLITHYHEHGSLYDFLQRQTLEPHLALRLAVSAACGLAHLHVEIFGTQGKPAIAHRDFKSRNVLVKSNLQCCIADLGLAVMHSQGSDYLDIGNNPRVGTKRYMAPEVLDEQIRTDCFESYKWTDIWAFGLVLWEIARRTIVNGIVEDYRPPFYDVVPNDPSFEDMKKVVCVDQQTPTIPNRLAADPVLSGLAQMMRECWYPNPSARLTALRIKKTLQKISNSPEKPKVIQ

[5] = molecular target: T1, Muscarinic acetylcholine receptor M4 (Homo sapiens) (UniProt P08173); details: Compound concentration 10.0 uM
T1 sequence (whole entry): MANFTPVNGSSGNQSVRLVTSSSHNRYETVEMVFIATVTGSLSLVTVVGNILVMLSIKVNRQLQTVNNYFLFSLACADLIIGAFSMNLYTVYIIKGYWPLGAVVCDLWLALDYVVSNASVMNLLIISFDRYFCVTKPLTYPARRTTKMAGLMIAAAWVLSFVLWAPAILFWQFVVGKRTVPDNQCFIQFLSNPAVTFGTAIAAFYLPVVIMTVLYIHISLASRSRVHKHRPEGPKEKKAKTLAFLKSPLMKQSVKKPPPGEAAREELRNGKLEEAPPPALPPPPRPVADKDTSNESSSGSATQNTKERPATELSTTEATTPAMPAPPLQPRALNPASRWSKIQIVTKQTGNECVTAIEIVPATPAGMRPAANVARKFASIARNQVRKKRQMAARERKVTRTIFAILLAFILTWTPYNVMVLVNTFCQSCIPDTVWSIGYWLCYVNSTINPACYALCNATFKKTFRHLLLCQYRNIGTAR

[6] = molecular target: Wee1-like protein kinase 2 (Homo sapiens) (UniProt P0C1S8); assay: Inhibition of Wee1B(h) at 10.0 µM in the Eurofins Kinase panel; details: Compound concentration 10.0 uM
Wee1-like protein kinase 2 (Homo sapiens), sequence (P0C1S8 whole entry, looked up): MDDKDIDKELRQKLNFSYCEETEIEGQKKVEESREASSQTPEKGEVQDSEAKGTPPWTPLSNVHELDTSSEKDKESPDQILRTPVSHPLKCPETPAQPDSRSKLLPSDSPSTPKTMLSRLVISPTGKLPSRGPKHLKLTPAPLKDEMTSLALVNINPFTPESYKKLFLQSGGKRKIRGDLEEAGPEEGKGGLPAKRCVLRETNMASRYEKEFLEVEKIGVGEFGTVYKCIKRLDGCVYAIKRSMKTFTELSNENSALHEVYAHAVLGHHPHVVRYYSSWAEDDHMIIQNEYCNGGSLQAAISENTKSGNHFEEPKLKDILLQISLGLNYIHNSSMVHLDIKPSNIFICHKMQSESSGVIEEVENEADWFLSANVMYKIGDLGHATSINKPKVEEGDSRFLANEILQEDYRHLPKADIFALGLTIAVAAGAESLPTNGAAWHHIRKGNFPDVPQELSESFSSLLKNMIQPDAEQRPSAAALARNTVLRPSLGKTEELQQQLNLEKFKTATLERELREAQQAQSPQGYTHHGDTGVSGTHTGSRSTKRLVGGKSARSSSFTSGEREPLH

[7] = molecular target: Methionine aminopeptidase 2 (Homo sapiens, UniProt P50579); assay: Degradation in HT1080 cells (CE) Dmax (Capillary electrophoresis (CE)); assay type: functional, cell-based; details: HT-1080
[8] = molecular target: Vascular endothelial growth factor receptor 3 (Homo sapiens) (UniProt P35916); assay: Inhibition of Flt4(h) at 10.0 µM in the Eurofins Kinase panel; details: Compound concentration 10.0 uM
[9] = molecular target: Tyrosine-protein kinase Yes (Homo sapiens) (UniProt P07947); assay: Inhibition of Yes(h) at 10.0 µM in the Eurofins Kinase panel; details: Compound concentration 10.0 uM
[10] = molecular target: Muscarinic acetylcholine receptor M5 (Homo sapiens, UniProt P08912); assay: GPCRScan assay: inhibition of M5; set-up: radioligand conc. used [nm] 0.2 – 1.0, parental cells stable CHO
Muscarinic acetylcholine receptor M5, sequence (P08912 whole entry): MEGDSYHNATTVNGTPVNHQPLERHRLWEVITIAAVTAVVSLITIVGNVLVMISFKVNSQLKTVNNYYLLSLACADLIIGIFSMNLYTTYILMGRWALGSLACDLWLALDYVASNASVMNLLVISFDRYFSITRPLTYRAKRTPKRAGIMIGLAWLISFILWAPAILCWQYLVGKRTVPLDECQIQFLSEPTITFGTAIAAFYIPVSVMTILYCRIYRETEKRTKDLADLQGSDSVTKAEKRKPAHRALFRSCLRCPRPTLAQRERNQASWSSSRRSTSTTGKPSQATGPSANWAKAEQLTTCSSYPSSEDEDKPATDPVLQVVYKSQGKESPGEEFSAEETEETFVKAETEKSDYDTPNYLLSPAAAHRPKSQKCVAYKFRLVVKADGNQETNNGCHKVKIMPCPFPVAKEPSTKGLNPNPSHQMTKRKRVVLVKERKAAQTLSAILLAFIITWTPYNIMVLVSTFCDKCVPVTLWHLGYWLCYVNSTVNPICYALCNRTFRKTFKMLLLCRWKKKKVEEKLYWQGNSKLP

[11] = molecular target: Calcium/calmodulin-dependent protein kinase type 1D (Homo sapiens) (UniProt Q8IU85); assay: Inhibition of CaMKIdelta(h) at 10.0 µM in the Eurofins Kinase panel; details: Compound concentration 10.0 uM
[12] = molecular target: Tyrosine-protein kinase JAK2 (Homo sapiens) (UniProt O60674); assay: Inhibition of JAK2(h) at 10.0 µM in the Eurofins Kinase panel; details: Compound concentration 10.0 uM
[13] = molecular target: Serine/threonine-protein kinase Sgk2 (Homo sapiens) (UniProt Q9HBY8); assay: Inhibition of SGK2(h) at 10.0 µM in the Eurofins Kinase panel; details: Compound concentration 10.0 uM
[14] = molecular target: Ribosomal protein S6 kinase beta-1 (Homo sapiens) (UniProt P23443); assay: Inhibition of p70S6K(h) at 10.0 µM in the Eurofins Kinase panel; details: Compound concentration 10.0 uM
Ribosomal protein S6 kinase beta-1 (Homo sapiens), sequence (P23443 whole entry, looked up): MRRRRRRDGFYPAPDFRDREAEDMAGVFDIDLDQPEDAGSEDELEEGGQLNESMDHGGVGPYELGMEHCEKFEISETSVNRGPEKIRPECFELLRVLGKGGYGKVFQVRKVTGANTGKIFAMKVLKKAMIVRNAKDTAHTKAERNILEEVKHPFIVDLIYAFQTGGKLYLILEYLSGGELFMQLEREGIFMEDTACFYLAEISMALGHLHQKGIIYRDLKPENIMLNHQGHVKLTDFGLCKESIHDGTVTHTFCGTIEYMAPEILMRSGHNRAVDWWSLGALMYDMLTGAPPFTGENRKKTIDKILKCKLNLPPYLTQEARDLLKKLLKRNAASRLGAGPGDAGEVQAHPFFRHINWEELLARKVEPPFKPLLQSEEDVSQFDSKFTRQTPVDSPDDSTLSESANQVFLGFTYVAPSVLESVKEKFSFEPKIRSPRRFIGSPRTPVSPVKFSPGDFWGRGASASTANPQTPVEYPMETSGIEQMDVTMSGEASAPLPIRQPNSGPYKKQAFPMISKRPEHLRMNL

[15] = molecular target: Protein kinase C gamma type (Homo sapiens) (UniProt P05129); assay: Inhibition of PKCgamma(h) at 10.0 µM in the Eurofins Kinase panel; details: Compound concentration 10.0 uM
[16] = molecular target: Serine/threonine-protein kinase ICK (Homo sapiens) (UniProt Q9UPZ9); assay: Inhibition of ICK(h) at 10.0 µM in the Eurofins Kinase panel; details: Compound concentration 10.0 uM
[17] = molecular target: Tribbles homolog 2 (Homo sapiens) (UniProt Q92519); assay: Inhibition of TRB2(h) at 10.0 µM in the Eurofins Kinase panel; details: Compound concentration 10.0 uM
[18] = molecular target: Serine/threonine-protein kinase 26 (Homo sapiens) (UniProt Q9P289); assay: Inhibition of MST4(h) at 10.0 µM in the Eurofins Kinase panel; details: Compound concentration 10.0 uM
[19] = molecular target: MAP kinase-activated protein kinase 3 (Homo sapiens) (UniProt Q16644); assay: Inhibition of MAPKAP-K3(h) at 10.0 µM in the Eurofins Kinase panel; details: Compound concentration 10.0 uM
[20] = molecular target: Serine/threonine-protein kinase Sgk3 (Homo sapiens) (UniProt Q96BR1); assay: Inhibition of SGK3(h) at 10.0 µM in the Eurofins Kinase panel; details: Compound concentration 10.0 uM
Serine/threonine-protein kinase Sgk3 (Homo sapiens), sequence (Q96BR1 whole entry): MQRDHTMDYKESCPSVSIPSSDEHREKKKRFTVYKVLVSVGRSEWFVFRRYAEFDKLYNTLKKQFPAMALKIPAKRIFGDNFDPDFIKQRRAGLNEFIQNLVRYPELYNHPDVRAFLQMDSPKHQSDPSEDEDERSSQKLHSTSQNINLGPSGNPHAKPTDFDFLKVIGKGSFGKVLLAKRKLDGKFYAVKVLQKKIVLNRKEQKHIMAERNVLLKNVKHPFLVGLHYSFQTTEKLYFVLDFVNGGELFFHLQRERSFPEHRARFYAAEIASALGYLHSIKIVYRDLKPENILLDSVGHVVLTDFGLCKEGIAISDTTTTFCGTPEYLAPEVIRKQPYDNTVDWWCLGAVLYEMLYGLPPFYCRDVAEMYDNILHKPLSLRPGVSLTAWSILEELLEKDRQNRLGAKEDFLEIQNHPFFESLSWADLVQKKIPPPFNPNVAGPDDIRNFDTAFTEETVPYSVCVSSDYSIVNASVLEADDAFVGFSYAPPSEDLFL

[21] = molecular target: [Pyruvate dehydrogenase (acetyl-transferring)] kinase isozyme 2, mitochondrial (Homo sapiens) (UniProt Q15119); assay: Inhibition of PDHK2(h) at 10.0 µM in the Eurofins Kinase panel; details: Compound concentration 10.0 uM
[22] = molecular target: PAS domain-containing serine/threonine-protein kinase (Homo sapiens) (UniProt Q96RG2); assay: Inhibition of PASK(h) at 10.0 µM in the Eurofins Kinase panel; details: Compound concentration 10.0 uM
[23] = molecular target: Sodium- and chloride-dependent GABA transporter 1 (Rattus norvegicus) (UniProt P23978); assay: Inhibition of Transporter, GABA at 10.0 µM in the Eurofins Panlabs Safety Screen; details: Compound concentration 10.0 uM
[24] = molecular target: Serine/threonine-protein kinase Sgk1 (Homo sapiens) (UniProt O00141); assay: Inhibition of SGK(h) at 10.0 µM in the Eurofins Kinase panel; details: Compound concentration 10.0 uM
Serine/threonine-protein kinase Sgk1 (Homo sapiens), sequence (O00141 whole entry): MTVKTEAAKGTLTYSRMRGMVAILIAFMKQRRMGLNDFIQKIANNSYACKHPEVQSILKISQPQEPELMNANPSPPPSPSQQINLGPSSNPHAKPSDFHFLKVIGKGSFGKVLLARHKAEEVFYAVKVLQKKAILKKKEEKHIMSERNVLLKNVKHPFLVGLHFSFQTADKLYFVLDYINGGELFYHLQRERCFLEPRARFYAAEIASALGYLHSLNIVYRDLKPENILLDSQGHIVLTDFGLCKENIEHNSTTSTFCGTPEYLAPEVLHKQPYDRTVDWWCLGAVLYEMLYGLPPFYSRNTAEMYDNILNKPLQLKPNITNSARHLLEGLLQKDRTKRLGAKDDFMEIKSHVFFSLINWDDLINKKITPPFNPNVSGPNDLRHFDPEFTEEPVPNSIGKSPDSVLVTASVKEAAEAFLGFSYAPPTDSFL

[25] = molecular target: Serine/threonine-protein kinase 38-like (Homo sapiens) (UniProt Q9Y2H1); assay: Inhibition of NDR2(h) at 10.0 µM in the Eurofins Kinase panel; details: Compound concentration 10.0 uM
[26] = molecular target: SRSF protein kinase 3 (Homo sapiens) (UniProt Q9UPE1); assay: Inhibition of MSSK1(h) at 10.0 µM in the Eurofins Kinase panel; details: Compound concentration 10.0 uM
[27] = molecular target: Tyrosine-protein kinase Fgr (Homo sapiens) (UniProt P09769); assay: Inhibition of Fgr(h) at 10.0 µM in the Eurofins Kinase panel; details: Compound concentration 10.0 uM
[28] = molecular target: STE20/SPS1-related proline-alanine-rich protein kinase (Homo sapiens) (UniProt Q9UEW8); assay: Inhibition of STK39(h) at 10.0 µM in the Eurofins Kinase panel; details: Compound concentration 10.0 uM
[29] = molecular target: PI3-kinase p110-delta/p85-alpha (Homo sapiens) (UniProt P27986+O00329); assay: Inhibition of PI3 Kinase (p110d/p85a)(h) at 10.0 µM in the Eurofins Kinase panel; assay type: protein-complex assay; details: Compound concentration 10.0 uM
[30] = molecular target: Testis-specific serine/threonine-protein kinase 4 (Homo sapiens) (UniProt Q6SA08); assay: Inhibition of TSSK4(h) at 10.0 µM in the Eurofins Kinase panel; details: Compound concentration 10.0 uM
Testis-specific serine/threonine-protein kinase 4 (Homo sapiens), sequence (Q6SA08 whole entry): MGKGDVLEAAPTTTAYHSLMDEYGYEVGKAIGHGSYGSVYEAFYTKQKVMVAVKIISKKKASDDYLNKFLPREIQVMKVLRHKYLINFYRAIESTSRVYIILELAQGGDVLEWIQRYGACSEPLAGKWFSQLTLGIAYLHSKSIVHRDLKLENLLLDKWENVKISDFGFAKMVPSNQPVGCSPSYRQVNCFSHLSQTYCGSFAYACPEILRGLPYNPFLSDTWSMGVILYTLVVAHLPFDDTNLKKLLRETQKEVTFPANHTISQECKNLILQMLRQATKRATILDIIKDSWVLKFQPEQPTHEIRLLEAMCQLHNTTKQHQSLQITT

[31] = molecular target: Cyclin-dependent kinase-like 2 (Homo sapiens) (UniProt Q92772); assay: Inhibition of CDKL2(h) at 10.0 µM in the Eurofins Kinase panel; details: Compound concentration 10.0 uM
[32] = molecular target: Tyrosine-protein kinase Mer (Homo sapiens) (UniProt Q12866); assay: Inhibition of Mer(h) at 10.0 µM in the Eurofins Kinase panel; details: Compound concentration 10.0 uM

O=C1CCC(N2Cc3cc(C4CCN(C(=O)CCCCCN5CCC(c6ccc(Oc7nn8cnnc8c8c7CCCC8)cc6)CC5)CC4)ccc3C2=O)C(=O)N1 (stereo not given)
inhibition [1]: 17.2%
inhibition [2]: 19.7%
inhibition [3]: 11.7%
inhibition [4]: 11.5%
inhibition [5]: 83.5%
inhibition [6]: 10.3%
Dmax [7]: 88.5%
inhibition [8]: 12.5%
inhibition [9]: 10.9%
pKi ([10]; read-out: Ki): 6.25
Ki ([10]; read-out: pKi (converted)): 562 nM
inhibition [11]: 11.4%
inhibition [12]: 21.8%
inhibition [13]: 16.5%

O=C1NCCCC1N1Cc2cc(C3CCN(C(=O)CCCCCN4CCC(c5ccc(Oc6nn7cnnc7c7c6CCCC7)cc5)CC4)CC3)ccc2C1=O (stereo not given)
inhibition [3]: 15.9%
inhibition [14]: 10.2%
inhibition [15]: 10.9%
inhibition [16]: 10.1%
inhibition [17]: 10.9%
inhibition [18]: 10.1%
inhibition [19]: 11.4%
inhibition [20]: 13.4%
inhibition [21]: 18.6%
inhibition [5]: 76.1%
inhibition [22]: 23.9%
inhibition [23]: 8%
inhibition [24]: 10.8%
inhibition [25]: 14.4%
inhibition [26]: 12.1%
inhibition [27]: 10.1%
inhibition [28]: 11.5%
inhibition [29]: 11.6%
inhibition [30]: 10.8%
inhibition [31]: 17.6%
inhibition [32]: 17.9%
